Test results reported in ChEMBL document CHEMBL1201862, “PubChem BioAssay data set” (2004).
The source made the active and inactive calls.

What was measured:
Leucine aminopeptidase = biological target: T1, Leucine aminopeptidase (Plasmodium falciparum 3D7, UniProt Q8IL11); experiment: P. falciparum M17LAP inhibitors, primary screen, biochemical, fluorogenic H-Leu-NHMec substrate, 1536-well (AID 1619); format: functional
T1 sequence (Q8IL11 whole entry): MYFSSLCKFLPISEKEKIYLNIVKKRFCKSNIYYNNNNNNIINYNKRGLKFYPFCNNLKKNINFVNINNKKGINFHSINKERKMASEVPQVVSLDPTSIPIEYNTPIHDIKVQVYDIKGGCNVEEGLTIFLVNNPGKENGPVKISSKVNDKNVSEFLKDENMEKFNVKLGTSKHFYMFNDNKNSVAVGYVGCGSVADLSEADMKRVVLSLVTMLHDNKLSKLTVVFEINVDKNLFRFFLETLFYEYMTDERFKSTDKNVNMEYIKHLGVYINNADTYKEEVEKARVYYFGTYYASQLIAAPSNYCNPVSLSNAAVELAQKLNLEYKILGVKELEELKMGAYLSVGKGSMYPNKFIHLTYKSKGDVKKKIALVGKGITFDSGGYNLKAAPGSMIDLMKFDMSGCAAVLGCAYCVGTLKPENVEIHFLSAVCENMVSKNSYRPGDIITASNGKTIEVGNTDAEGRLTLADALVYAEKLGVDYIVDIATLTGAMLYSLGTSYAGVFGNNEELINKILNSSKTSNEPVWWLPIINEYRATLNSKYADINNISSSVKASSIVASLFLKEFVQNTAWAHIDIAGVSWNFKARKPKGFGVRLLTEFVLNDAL

Cytochrome P450 2D6 = Cytochrome P450 2D6 (Homo sapiens, UniProt P10635);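 note: CYP2D6 member of a cytochrome P450 panel assay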
Cytochrome P450 2D6, sequence (P10635 whole entry): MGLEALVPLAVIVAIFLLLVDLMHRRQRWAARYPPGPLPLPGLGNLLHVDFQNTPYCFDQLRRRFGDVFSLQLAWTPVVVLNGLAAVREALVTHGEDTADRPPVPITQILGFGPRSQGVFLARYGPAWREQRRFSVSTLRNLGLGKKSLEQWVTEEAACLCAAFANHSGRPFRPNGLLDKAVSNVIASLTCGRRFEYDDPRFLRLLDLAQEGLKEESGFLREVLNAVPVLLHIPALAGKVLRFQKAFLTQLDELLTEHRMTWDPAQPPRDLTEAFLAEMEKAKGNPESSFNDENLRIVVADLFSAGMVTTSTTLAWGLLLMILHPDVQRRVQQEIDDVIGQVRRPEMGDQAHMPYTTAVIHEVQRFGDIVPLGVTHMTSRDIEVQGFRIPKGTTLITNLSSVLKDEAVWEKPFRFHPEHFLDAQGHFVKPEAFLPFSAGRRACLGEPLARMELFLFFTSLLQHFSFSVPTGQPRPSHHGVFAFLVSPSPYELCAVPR

Large T antigen = Large T antigen (Simian virus 40, UniProt P03070); format: functional, Betapolyomavirus macacae;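 note: Confirmatory-stage PubChem screen for compounds that inhibit SV40 T antigen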
Large T antigen, sequence (P03070 whole entry): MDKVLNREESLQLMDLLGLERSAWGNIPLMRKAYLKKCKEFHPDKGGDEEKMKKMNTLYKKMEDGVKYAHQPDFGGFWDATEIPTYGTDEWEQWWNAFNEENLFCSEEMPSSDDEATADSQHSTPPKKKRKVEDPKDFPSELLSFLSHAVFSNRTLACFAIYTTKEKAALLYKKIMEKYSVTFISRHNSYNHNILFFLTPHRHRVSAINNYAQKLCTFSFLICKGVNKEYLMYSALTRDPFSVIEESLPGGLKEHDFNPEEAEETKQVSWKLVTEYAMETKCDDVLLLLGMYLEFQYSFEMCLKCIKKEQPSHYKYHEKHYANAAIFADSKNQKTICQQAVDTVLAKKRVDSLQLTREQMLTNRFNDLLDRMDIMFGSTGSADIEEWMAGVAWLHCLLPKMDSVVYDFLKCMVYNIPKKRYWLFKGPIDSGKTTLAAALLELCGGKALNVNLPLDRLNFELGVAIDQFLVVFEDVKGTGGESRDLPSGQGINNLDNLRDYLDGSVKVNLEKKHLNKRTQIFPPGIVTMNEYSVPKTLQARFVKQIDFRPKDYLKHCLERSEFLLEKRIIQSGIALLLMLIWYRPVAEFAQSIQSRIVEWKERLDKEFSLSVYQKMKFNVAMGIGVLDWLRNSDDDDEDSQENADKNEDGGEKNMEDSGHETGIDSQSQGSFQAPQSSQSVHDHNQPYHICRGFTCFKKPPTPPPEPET

Cytochrome P450 2C19 = Cytochrome P450 2C19 (Homo sapiens, UniProt P33261); experiment: Cytochrome panel assay with activity outcomes. Panel member name: p450-cyp2c19 Compounds with AC50 equal or less than 10 uM are considered active; format: functional; settings: read-out: AC50
Cytochrome P450 2C19, sequence (P33261 whole entry): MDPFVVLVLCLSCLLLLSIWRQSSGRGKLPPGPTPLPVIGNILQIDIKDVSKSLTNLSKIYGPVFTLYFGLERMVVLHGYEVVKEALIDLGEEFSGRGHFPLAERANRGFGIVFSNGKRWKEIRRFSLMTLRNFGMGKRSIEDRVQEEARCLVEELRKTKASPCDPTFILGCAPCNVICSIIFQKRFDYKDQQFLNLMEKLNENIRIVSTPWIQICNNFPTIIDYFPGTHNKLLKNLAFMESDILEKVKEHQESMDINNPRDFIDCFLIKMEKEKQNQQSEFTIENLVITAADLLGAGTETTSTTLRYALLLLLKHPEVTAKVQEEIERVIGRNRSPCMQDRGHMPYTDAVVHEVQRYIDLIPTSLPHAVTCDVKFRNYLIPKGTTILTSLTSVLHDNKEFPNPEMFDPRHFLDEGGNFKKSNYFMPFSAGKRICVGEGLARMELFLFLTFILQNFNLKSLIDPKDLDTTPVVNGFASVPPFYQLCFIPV

Nonstructural protein 1 = Nonstructural protein 1 (Influenza A virus, UniProt Q194T2); format: functional, Influenza A virus (A/California/07/2009(H1N1))
Nonstructural protein 1, sequence (Q194T2 whole entry): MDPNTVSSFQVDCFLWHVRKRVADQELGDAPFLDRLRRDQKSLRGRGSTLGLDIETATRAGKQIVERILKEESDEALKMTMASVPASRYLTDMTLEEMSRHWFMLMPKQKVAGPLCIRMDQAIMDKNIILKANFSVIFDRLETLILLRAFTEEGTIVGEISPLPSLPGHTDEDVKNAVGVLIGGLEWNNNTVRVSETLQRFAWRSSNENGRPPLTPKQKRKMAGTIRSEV

Protein RecA = biological target: T2, Protein RecA (Mycobacterium tuberculosis, UniProt P9WHJ3); experiment: Fluorescence Cell-Free Homogeneous Dose Retest to Identify Inhibitors of RecA-Intein Splicing Activity. [Related pubchem assays (depositor defined):AID2097, AID2223, AID489010, AID492950]; format: functional
T2 sequence (P9WHJ3 whole entry): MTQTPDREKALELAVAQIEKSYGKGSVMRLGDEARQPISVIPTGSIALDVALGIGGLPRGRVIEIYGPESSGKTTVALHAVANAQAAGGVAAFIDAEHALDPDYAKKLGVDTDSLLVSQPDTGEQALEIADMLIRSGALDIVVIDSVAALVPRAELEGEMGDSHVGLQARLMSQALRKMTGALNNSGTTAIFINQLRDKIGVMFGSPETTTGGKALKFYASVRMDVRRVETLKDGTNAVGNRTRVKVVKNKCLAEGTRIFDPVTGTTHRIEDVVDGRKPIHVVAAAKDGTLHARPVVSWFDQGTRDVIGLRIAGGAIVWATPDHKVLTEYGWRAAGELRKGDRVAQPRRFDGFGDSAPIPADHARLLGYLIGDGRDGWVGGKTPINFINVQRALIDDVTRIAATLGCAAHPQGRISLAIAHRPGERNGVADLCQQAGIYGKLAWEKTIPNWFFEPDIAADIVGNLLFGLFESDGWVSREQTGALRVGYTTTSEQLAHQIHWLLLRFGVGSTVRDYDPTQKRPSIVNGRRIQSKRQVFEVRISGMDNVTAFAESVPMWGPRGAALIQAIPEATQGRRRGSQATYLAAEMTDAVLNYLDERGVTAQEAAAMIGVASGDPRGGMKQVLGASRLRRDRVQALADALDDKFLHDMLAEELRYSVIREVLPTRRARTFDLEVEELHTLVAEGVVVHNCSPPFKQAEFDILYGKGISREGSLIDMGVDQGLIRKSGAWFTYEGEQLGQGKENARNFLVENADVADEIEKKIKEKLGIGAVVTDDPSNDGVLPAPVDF

[1] = biological target: T3, Replicative DNA helicase DnaB (Mycobacterium tuberculosis, UniProt P9WMR3); experiment: DnaB intein splicing inhibitors, dose response, biochemical, cell-free fluorescence (AID 449749); format: functional
T3 sequence (P9WMR3 whole entry): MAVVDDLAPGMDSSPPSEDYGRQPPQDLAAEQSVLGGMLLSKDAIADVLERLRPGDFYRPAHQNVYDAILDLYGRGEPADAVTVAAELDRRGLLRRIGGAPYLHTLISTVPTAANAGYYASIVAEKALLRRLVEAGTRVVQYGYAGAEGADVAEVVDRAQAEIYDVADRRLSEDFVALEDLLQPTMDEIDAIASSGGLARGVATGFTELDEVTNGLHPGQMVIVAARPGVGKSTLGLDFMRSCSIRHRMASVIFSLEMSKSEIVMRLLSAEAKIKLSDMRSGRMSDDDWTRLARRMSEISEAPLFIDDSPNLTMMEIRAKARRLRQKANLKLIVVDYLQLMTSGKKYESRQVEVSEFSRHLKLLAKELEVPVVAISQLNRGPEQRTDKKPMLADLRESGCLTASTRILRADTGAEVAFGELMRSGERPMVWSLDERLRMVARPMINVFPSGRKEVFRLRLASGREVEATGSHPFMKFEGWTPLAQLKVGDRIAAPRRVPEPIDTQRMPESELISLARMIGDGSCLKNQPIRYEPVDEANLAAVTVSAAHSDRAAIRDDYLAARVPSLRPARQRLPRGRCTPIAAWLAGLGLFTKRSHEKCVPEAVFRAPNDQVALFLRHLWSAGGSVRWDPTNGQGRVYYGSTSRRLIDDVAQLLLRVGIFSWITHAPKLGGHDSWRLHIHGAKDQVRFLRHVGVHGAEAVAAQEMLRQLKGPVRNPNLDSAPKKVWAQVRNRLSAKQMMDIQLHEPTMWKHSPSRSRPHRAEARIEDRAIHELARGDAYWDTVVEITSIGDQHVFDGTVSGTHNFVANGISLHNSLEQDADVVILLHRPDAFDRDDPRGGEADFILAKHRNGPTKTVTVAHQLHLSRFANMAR

[2] = biological target: T4, RNA-binding protein pos-1 (Caenorhabditis elegans, UniProt G5EF15); experiment: inhibitors of POS-1/mex-3 RNA binding, dose response, biochemical, fluorescence polarization (AID 1964);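 note: purified POS-1 fused to maltose binding protein made in E. coli; potency of compounds blocking POS-1 binding to fluorescent RNA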
T4 sequence (G5EF15 whole entry): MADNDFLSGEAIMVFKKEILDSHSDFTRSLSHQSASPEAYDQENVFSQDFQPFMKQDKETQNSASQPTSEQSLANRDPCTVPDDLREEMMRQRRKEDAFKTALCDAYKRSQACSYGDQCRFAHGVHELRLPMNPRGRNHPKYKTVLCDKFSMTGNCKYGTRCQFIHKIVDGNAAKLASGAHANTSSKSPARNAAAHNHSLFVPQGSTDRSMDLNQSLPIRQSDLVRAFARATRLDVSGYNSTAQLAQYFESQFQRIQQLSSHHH

[3] = biological target: T5, Zinc finger protein mex-5 (Caenorhabditis elegans, UniProt Q9XUB2); experiment: MEX-5/TCR-2 RNA interaction inhibitors, dose response, biochemical, C. elegans, fluorescence polarization (AID 1960)
T5 sequence (Q9XUB2 whole entry): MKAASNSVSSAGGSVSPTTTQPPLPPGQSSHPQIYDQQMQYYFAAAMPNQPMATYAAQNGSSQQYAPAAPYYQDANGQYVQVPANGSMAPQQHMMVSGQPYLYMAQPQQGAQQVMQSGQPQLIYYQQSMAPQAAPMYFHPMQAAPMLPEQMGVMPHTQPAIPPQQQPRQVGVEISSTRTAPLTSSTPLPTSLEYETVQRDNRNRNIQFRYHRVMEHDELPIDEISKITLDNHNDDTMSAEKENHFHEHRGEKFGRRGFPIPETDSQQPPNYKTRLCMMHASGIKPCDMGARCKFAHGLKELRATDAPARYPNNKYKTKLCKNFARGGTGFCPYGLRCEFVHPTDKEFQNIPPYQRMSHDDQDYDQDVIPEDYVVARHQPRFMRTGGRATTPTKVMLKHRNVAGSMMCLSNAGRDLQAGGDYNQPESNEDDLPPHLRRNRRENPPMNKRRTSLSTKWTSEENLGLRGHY

[4] = biological target: FAD-linked sulfhydryl oxidase ALR (Homo sapiens, UniProt P55789); experiment: inhibitors of human ALR sulfhydryl oxidase, dose response, biochemical, H2O2 detection, luminescence, cherry-pick (AID 493248)
FAD-linked sulfhydryl oxidase ALR, sequence (P55789 whole entry): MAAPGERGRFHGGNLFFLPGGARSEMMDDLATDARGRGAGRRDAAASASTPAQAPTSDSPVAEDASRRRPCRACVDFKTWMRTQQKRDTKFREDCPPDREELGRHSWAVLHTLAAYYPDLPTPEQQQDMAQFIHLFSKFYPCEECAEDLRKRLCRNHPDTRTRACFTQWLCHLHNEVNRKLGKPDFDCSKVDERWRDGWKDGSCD

Protein skinhead-1 = biological target: T6, Protein skinhead-1 (Caenorhabditis elegans, UniProt P34707); format: functional
T6 sequence (P34707 whole entry): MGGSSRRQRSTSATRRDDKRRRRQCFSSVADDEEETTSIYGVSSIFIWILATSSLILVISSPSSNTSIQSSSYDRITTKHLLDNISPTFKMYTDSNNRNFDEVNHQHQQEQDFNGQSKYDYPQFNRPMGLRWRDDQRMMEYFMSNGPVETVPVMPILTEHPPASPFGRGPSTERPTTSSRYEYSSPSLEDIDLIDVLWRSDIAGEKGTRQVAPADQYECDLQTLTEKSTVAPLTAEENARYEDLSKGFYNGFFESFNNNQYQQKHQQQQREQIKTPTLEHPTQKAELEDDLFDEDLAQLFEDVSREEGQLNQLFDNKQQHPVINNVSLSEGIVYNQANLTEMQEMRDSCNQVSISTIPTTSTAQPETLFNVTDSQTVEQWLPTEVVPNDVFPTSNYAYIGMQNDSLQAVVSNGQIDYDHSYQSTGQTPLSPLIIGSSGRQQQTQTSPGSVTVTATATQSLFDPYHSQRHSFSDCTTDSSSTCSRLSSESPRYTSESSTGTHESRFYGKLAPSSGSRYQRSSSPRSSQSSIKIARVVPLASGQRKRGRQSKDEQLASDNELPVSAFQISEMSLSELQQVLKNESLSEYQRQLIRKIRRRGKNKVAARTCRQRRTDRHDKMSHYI

[5] = cytotoxicity toward NIH3T3 fibroblasts, dose response, counter-screen, cell-based, ATP luminescence, mouse fibroblasts (AID 2010); format: functional;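 note: cells exposed to compound for about 90 hours before reading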
[6] = inhibitors of intracellular T. cruzi replication, confirmation, NIH3T3 host cells, beta-gal luminescence (AID 2044); format: functional, cell-based;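 note: intracellular parasites grown in NIH/3T3 mouse fibroblasts as host cells; luminescent beta-galactosidase reporter signal from transgenic T. cruzi replicating inside host cells; inhibitors lower the luminescence signal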
[7] = biological target: T7, Calpain-2 catalytic subunit (Sus scrofa, UniProt P43367); experiment: pig calpain II inhibitor potency, dose response, biochemical, fluorogenic peptide substrate (AID 1420); format: functional
T7 sequence (P43367 whole entry): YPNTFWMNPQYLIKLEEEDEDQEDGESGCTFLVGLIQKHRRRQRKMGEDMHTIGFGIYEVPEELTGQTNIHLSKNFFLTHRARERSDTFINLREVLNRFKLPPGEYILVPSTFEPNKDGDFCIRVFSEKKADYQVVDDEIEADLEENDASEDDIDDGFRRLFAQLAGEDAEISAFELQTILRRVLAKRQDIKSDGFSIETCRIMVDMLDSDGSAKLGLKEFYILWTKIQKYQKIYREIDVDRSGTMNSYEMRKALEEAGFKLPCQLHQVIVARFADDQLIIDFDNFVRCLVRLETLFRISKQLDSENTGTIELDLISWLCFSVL

COc1ccccc1/C=C/C=N/NC(=O)CCC1C(=O)NN=C1C (stereo unspecified)
IC50 (Leucine aminopeptidase): 57.2 µM (active)

O=C(CSc1nc[nH]n1)Nc1nnc(-c2ccccc2)s1
IC50 (Leucine aminopeptidase): 43.1 µM (active)

COc1ccc(N2CCN(C(CNC(=O)C3CCCCC3)c3cccnc3)CC2)cc1 (stereo unspecified)
AC50 (Cytochrome P450 2D6): 0.355 µM (inconclusive) | IC50 (Large T antigen): 27 µM (active) | AC50 (Cytochrome P450 2C19): 7.08 µM (inconclusive)

CCOC(=O)c1c(NC(=O)C2C3CCC(O3)C2C(=O)O)sc(C)c1-c1ccc(F)cc1 (stereo unspecified)
IC50 (Leucine aminopeptidase): 8.78 µM (active)

CCOC(=O)c1cnc(-n2[nH]c(C)c(Cc3ccccc3)c2=O)[nH]c1=O
IC50 (Nonstructural protein 1): 3.4 µM (active) | EC50 (Protein RecA): 5.99 µM (active) | AC50 [1]: 9.77 µM (active)

O=C(O)C1CCCCC1C(=O)Nc1cc(Cl)ccc1Cl (stereo unspecified)
IC50 (Leucine aminopeptidase): 25 µM (active) | AC50 (Cytochrome P450 2C19): 25.1 µM (inconclusive)

O=C(N/N=C\C1C(=O)NC(=S)N(c2ccccc2)C1=O)c1ccc(O)cc1 (stereo unspecified)
EC50 [2]: > 300 µM (not active) | IC50 (Nonstructural protein 1): 9.86 µM (active) | EC50 [3]: 63.7 µM (active)

O=C(NCC1COc2ccccc2O1)C1C2C=CC3(CN(Cc4cccs4)C(=O)C13)O2 (stereo unspecified)
IC50 (Leucine aminopeptidase): 7.96 µM (active)

Cc1c(NN=C2C(=O)NC(=S)NC2=O)c(=O)n(-c2ccccc2)n1C
IC50 (Nonstructural protein 1): 2.77 µM (active)

COc1cc(/C=N/NS(=O)(=O)c2ccc(Br)cc2)ccc1O
AC50 [4]: 1.7 µM (active) | IC50 (Large T antigen): 19.4 µM (active)

c1nc(NCc2ccc3c(c2)OCO3)n[nH]1
IC50 (Leucine aminopeptidase): 17.9 µM (active)

Cc1cc(C)nc(NS(=O)(=O)c2ccc(N/C=C3\CCCC3=O)cc2)n1
IC50 (Leucine aminopeptidase): 56.7 µM (active)

O=C(CN1C(=O)c2ccccc2S1(=O)=O)NC1CC2CCC1C2 (stereo unspecified)
IC50 (Leucine aminopeptidase): 75.4 µM (active)

Nc1nnnn1CC(=O)N/N=C/c1cc([N+](=O)[O-])ccc1O
IC50 (Nonstructural protein 1): 3.13 µM (active)

Fc1ccc(CNc2nc(-c3ccccc3)nc3ccccc23)cc1
IC50 (Protein skinhead-1): 32.9 µM (active) | EC50 [5]: > 30 µM (not active) | EC50 [2]: > 300 µM (not active) | EC50 [6]: 0.107 µM (active) | IC50 [7]: 6.57 µM (not active) | EC50 [3]: > 300 µM (not active)

COc1cc(/C=N/Nc2ccccn2)ccc1O
IC50 (Large T antigen): 5.41 µM (active)

CCN(CC)c1ccc(NC(=O)CSc2ccsc2[N+](=O)[O-])c(C)c1
IC50 (Leucine aminopeptidase): 1.9 µM (active)

COCCSc1nnc(NC(=O)c2cc(C(=O)OC)cc([N+](=O)[O-])c2)s1
IC50 (Leucine aminopeptidase): 60.2 µM (active)
